Laboratory results published in patent US8999661B2, “Compositions for detecting cell death and methods of use thereof” (Dana-Farber Cancer Institute, Inc., priority 2008, dated 2015).

Experiments:
HeLa cells [1] = test: Confocal microscopy of stained apoptotic HeLa cells; format: cell-based
HeLa cells [2] = test: FACS staining of camptothecin-treated apoptotic HeLa cells; format: cell-based; conditions: for cell staining over time (FACS): 12 h, 24 h, annexin binding buffer; for percent apoptotic cells as measured with the probe: camptothecin; for uptake by apoptotic HeLa cells (FACS) / uptake by control untreated HeLa cells (FACS): FIG. 6
Experimental: HeLa cells (5×10^5 in 10 cm plates) maintained in DMEM with 10% FBS were contacted with 5 μM camptothecin to induce apoptosis. Cell staining by FITC-labeled Annexin V (Abcam, Cambridge, Mass.) or Cy5.5-labeled chicken LDH (1 μL) prepared as described in Example 1, was measured by fluorescence-activated cell sorting (FACS) analysis (with cells in annexin binding buffer (Abcam)) 12 h, 24 h, and 48 h later. Untreated HeLa cells served as negative controls.
Staining by Annexin V is known to require the presence of calcium. […] HeLa cells treated with camptothecin to induce apoptosis as in Example 9 were stained with FITC-labeled Annexin V (Abcam, Cambridge, Mass.) or Cy5.5-labeled chicken LDH in calcium-containing Annexin buffer or in calcium-free PBS. Stained cells were analyzed by FACS analysis as in Example 9.
HeLa cells (5×10^5 in 10 cm plates) maintained in DMEM with 10% FBS were contacted with 5 μM camptothecin to induce apoptosis. Cell staining was done in the media: (i) annexin buffer, (ii) DMEM supplemented with 1% FBS; (iii) DMEM supplemented with 2% FBS; (iii) DMEM supplemented with 5% FBS; (iv) DMEM supplemented with 10% FBS. For cell staining FITC-labeled Annexin V (Abcam, Cambridge, Mass.) or Cy5.5-labeled chicken LDH (1 μL) prepared as described in Example 1, was used to for FACS analysis (cells in annexin binding buffer (Abcam)) 48 h later. Untreated HeLa cells served as negative controls. […]

RS4;11 cells = test: FACS staining of RS4;11 cells treated with NVP-LAQ824; format: cell-based; conditions: RS4;11, 50 nM NVP-LAQ824, 24 h
Experimental: RS4;11 is a MLL-AF4 fusion transcript-positive t(4;11) pre-B ALL cell line that is highly resistant to chemotherapy and radiation. In this experiment RS4;11 cells (1×10^6) were treated with 50 nM NVP-LAQ824 (Novartis Pharma, Basel, Switzerland) for 24 h and then contacted with FITC-labeled Annexin V (Abcam, Cambridge, Mass.) or Cy5.5-labeled chicken LDH and analyzed by FACS as in Example 9. NVP-LAQ824 is a potent hydroxamic acid-derived histone deacetylase inhibitor that induces apoptosis in nanomolar concentrations in myeloid leukemia cell lines, multiple myeloma, and patient samples. Catley L et al. (2003) Blood 102:2615-22.
In a related experiment, RS4;11 cells were treated with 50 nM NVP-LAQ824 in culture media for 24 h and then stained with FITC-labeled Annexin V or A680-labeled human LDH-B in either Annexin buffer or culture media. Apoptosis was measured by FACS analysis. Results indicated a significant difference between 11-12 percent apoptotic cells as measured with FITC-labeled Annexin V in Annexin buffer versus only 4 percent apoptotic cells as measured with FITC-labeled Annexin V in culture media. In contrast, results indicated 11-12 percent apoptotic cells as measured with A680-labeled LDH-B, whether in Annexin buffer or culture media.

THP-1 cells [3] = test: Competition for Annexin V and LDHB binding to apoptotic THP-1 cells; format: cell-based; conditions: probe 0.1 μM; for staining of apoptotic cells in the presence of excess unlabeled Annexin V: 5- and 10-fold excess
Experimental: To determine whether physiological levels of LDH may preclude binding of a LDH probe, the ability of excess unlabeled cLDHB and Annexin V to compete for binding of apoptotic cells by FITC conjugated Annexin V and cLDHB was assessed.
Apoptosis was induced in THP-1 cells with LAQ824 (50 nM, 18 hrs), and cells were stained with either Annexin V-FITC or cLDHB-FITC at a final concentration of 0.1 μM. For competition, staining was performed in the presence of excess unlabeled LDHB or Annexin V.

THP-1 cells [4] = test: Staining of THP-1 cells treated with HDAC inhibitor LAQ824; format: cell-based; conditions: THP-1, LAQ824 50 nM, 18 hrs
Experimental: To correlate cLDHB staining with other measures of apoptosis, a fluorescent probe that binds to activated caspases (pan-caspase-FLICA, Immunochemistry Tech) was used. THP-1 cells were treated with the HDAC inhibitor LAQ824 (50 nM, 18 hrs) to induce apoptosis.
Similarly, we asked whether the […] proteins performed comparably to purified recombinant LDH.

apoptotic cells [5] = test: Staining requirements (temperature, calcium) of cLDHB and Annexin V; format: cell-based
Experimental: To determine if cLDHB is actively transported into cells, staining was performed at room temperature and at 4° C.
A major limitation of Annexin V staining is the requirement for supra-physiological concentrations of calcium (Tait, J. F., D. F. Gibson, and C. Smith, Anal Biochem, 2004. 329: 112-9). To determine whether cLDHB staining required calcium, Annexin V and cLDHB staining was performed in PBS (without calcium or magnesium) or in Annexin Binding Buffer (with 2.5 mM calcium).

apoptotic cells [6] = test: Homogeneous multiwell apoptosis assay in normal growth medium; format: cell-based; conditions: e.g., RPMI with 10% FBS, flow cytometry or High-Content Microscopy
[7] = test system: Ku812-Luc+ (BCR-ABL+CML blast crisis) cells; test: In vivo imaging of chemotherapy-induced apoptosis (AMN107); set-up: species or system mice; conditions: 100 mg/kg IP; day 5
Experimental: Subcutaneous tumors were established using Ku812-Luc+ (BCR-ABL+CML blast crisis) cells in NCr nude mice. When tumors were ˜1 cm, mice underwent bioluminescence imaging (BLI) to determine baseline tumor burden, followed by treatment with either AMN107 (nilotinib) at 100 mg/kg intraperitoneally (IP), or with vehicle. After 3 doses, animals were injected with 20 μg of LDH-Alexa750. Fluorescence imaging (FL) was performed 24 and 48 hrs after probe injection (day 4 and 5 of treatment) and BLI was repeated on day 5 of treatment (FIG. 9A).

[8] = calcium-containing Annexin V buffer

Cy5.5-labeled Annexin V: Cy5.5-labeled Annexin V (Abcam) [reference compound]
staining pattern (confocal microscopy) (HeLa cells [1]): membranous

Cy5.5-labeled chicken LDH: chicken lactate dehydrogenase (LDH-B) labeled with Cy5.5 N-hydroxysuccinimide ester as described in Example 1
staining pattern (confocal microscopy) (HeLa cells [1]): punctate cytoplasmic
proportion of apoptotic cells detected compared to FITC-labeled Annexin V (HeLa cells [2]; HeLa, 5 μM camptothecin): comparable
cell staining over time (FACS) (HeLa cells [2]; HeLa, 5 μM camptothecin, 48 h): progressively stained positive
staining of apoptotic cells (FACS) (HeLa cells [2]; [8]): strongly and equally positive
staining of apoptotic cells (FACS) (HeLa cells [2]; calcium-free PBS): strongly and equally positive
percent apoptotic cells as measured with the probe (HeLa cells [2]; over the range FBS zero to 10 percent, HeLa, 48 h): about 65%
apoptosis over background levels as measured with the probe (RS4;11 cells): only a mild increase
staining compared to FITC-Annexin V (RS4;11 cells): comparable

FITC-labeled Annexin V: FITC-labeled Annexin V (Abcam), phosphatidylserine-binding apoptosis probe [reference compound]
staining pattern (confocal microscopy) (HeLa cells [1]): membranous
staining of apoptotic cells in the presence of excess unlabeled Annexin V (THP-1 cells [3]): abrogated
cell staining over time (FACS) (HeLa cells [2]; HeLa, 5 μM camptothecin, 48 h): progressively stained positive
staining of apoptotic cells (FACS) (HeLa cells [2]; [8]): strongly positive
staining of apoptotic cells (FACS) (HeLa cells [2]; calcium-free PBS): essentially not at all
apoptosis over background levels as measured with the probe (RS4;11 cells): only a mild increase
apoptotic cells as measured with the probe (RS4;11 cells; staining in culture media): 4%

cLDHB-A680: chicken LDHB labeled with A680 (Alexa 680)
coincidence of staining with caspase activation (pan-caspase-FLICA) (THP-1 cells [4]): entirely coincident

Annexin V: fluorescently labeled Annexin V probe used as comparator; FITC-labeled in Example 12 [reference compound]
percent apoptotic cells as measured with the probe (HeLa cells [2]; FBS 10 percent, HeLa, 48 h): about 15%
percent apoptotic cells as measured with the probe (HeLa cells [2]; FBS zero, HeLa, 48 h): about 50%
change of staining with increasing amounts of FBS (FACS) (HeLa cells [2]; HeLa treated with camptothecin): significantly decreased
staining in PBS (without calcium or magnesium) compared to Annexin Binding Buffer (2.5 mM calcium) (apoptotic cells [5]): significantly decreased
staining / quantification of apoptosis with probe added directly to normal growth medium (apoptotic cells [6]): No Annexin V staining

LDHB: LDHB not fused to GST, served as a positive control
uptake by / staining of apoptotic cells (FACS) (HeLa cells [2]; HeLa, 5 μM camptothecin, 48 h, FIG. 5): stained apoptotic cells

Cc1cn(-c2cc(NC(=O)c3ccc(C)c(Nc4nccc(-c5cccnc5)n4)c3)cc(C(F)(F)F)c2)cn1 [AMN107, nilotinib]
difference between treated animals and vehicle-treated controls by BLI [7]: 2 log
tumor response by BLI [7]: tumor regression

FITC-labeled chicken LDH: chicken LDH-B labeled with fluorescein isothiocyanate
staining pattern (confocal microscopy) (HeLa cells [1]): punctate cytoplasmic
staining of apoptotic cells in the presence of excess unlabeled Annexin V (THP-1 cells [3]): no effect
staining of apoptotic cells in the presence of excess unlabeled LDHB (THP-1 cells [3]; up to 100-(10 μM) and 350-fold (35 μM) excess): only marginally altered

B1: labeled ADH: Cy5.5-labeled yeast alcohol dehydrogenase (Alexa 680-labeled per FIG. 6 legend) (conjugate, UniProt P00330 2-348, looked up)
Alcohol dehydrogenase 1: SIPETQKGVIFYESHGKLEYKDIPVPKPKANELLINVKYSGVCHTDLHAWHGDWPLPVKLPLVGGHEGAGVVVGMGENVKGWKIGDYAGIKWLNGSCMACEYCELGNESNCPHADLSGYTHDGSFQQYATADAVQAAHIPQGTDLAQVAPILCAGITVYKALKSANLMAGHWVAISGAAGGLGSLAVQYAKAMGYRVLGIDGGEGKEELFRSIGGEVFIDFTKEKDIVGAVLKATDGGAHGVINVSVSEAAIEASTRYVRANGTTVLVGMPAGAKCCSDVFNQVVKSISIVGSYVGNRADTREALDFFARGLVKSPIKVVGLSTLPEIYEKMEKGQIVGRYVVDTSK
modifications: Cy5.5 or Alexa 680 label
uptake by apoptotic HeLa cells (FACS) (HeLa cells [2]; 5 μM camptothecin): taken up
uptake by control untreated HeLa cells (FACS) (HeLa cells [2]): not by control untreated HeLa cells

B2: labeled MDH: Cy5.5-labeled E. coli malate dehydrogenase (Alexa 680-labeled per FIG. 6 legend) (conjugate, UniProt P61889 1-312, looked up)
Malate dehydrogenase: MKVAVLGAAGGIGQALALLLKTQLPSGSELSLYDIAPVTPGVAVDLSHIPTAVKIKGFSGEDATPALEGADVVLISAGVARKPGMDRSDLFNVNAGIVKNLVQQVAKTCPKACIGIITNPVNTTVAIAAEVLKKAGVYDKNKLFGVTTLDIIRSNTFVAELKGKQPGEVEVPVIGGHSGVTILPLLSQVPGVSFTEQEVADLTKRIQNAGTEVVEAKAGGGSATLSMGQAAARFGLSLVRALQGEQGVVECAYVEGDGQYARFFSQPLLLGKNGVEERKSIGTLSAFEQNALEGMLDTLKKDIALGEEFVNK
modifications: Cy5.5 or Alexa 680 label
uptake by apoptotic HeLa cells (FACS) (HeLa cells [2]; 5 μM camptothecin): taken up
uptake by control untreated HeLa cells (FACS) (HeLa cells [2]): not by control untreated HeLa cells
